In patent US11072635B2, “Macrocyclic broad spectrum antibiotics” (priority 2015, dated 2021):
In brackets after ≈: the same amount, converted by molar mass. Where two headings read alike, the source gives them in different places.

Key:
[1] = system: Escherichia coli MC4100 harboring the IMP4213 (E. coli IMP); assay: microbe, parasite or virus in culture; format: cell-based; conditions: 22 h, read-out: MIC (μg/mL) E. coli IMP
Description: (§1) In vitro antimicrobial activity of each compound was determined by measuring minimal inhibitor concentrations (MICs) using the broth micro-dilution technique as approved by the Clinical and Laboratory Standards Institute (CLSI) (Methods for Dilution Antimicrobial Susceptibility Tests for Bacteria that Grow Aerobically; Approved Standard—Eighth Edition. CLSI document M07-A8. Wayne, Pa.: Clinical and Laboratory Standards; 2009). Antibacterial activity was measure against three strains of bacteria: a Methicillin Resistant Staphylococcus aureus strain USA 300, NRS384 (S. aureus); a strain of Escherichia coli MC4100 harboring the IMP4213 (E. coli IMP), which results in increased outer-membrane permeability (B Martin and Silhavy T. Imp/OstA is required for cell envelope biogenesis in Escherichia coli. (2002) Molecular Microbiology, 45(5), 1289-1302), and Escherichia coli ATCC 25922 (E. coli), a clinically relevant Gram-negative strain. Cells were inoculated onto plates of Trypyticase Soy Agar or Luria Agar respectively and grown at 35° C. for 20 hours. Inocula suspensions were prepared by scraping cells into 1 mL of testing media (cation adjusted Mueller Hinton Broth supplemented with 0.002% v/v Tween-80) and diluting to a final OD600 nm of 0.01.
(§2) Test compounds were prepared in DMSO at a concentration of 10 mg/mL. […] In protocol 2, the compound stocks were diluted into testing media at a concentration of 4 μg/mL and serial 2-fold dilutions were made in the same media, in 96-well U bottom microtiter dishes, for a total of 10 compound concentrations. In protocol 3, compound stocks were diluted into testing media at a concentration of 0.5 μg/mL, with serial 2-fold dilutions conducted as described above. […] Inocula suspensions were added to the 2-fold serial dilutions of test compounds to a final density of OD OD600 nm of 0.0005 and incubated at 35° C. for 22 hours.

[2] = system: Escherichia coli ATCC 25922 (E. coli); assay: Minimum inhibitory concentration, broth micro-dilution (CLSI); format: cell-based; conditions: read-out: MIC (μg/mL) E. coli
Description: Cells were inoculated onto plates of Trypyticase Soy Agar or Luria Agar respectively and grown at 35° C. for 20 hours. Inocula suspensions were prepared by scraping cells into 1 mL of testing media (cation adjusted Mueller Hinton Broth supplemented with 0.002% v/v Tween-80) and diluting to a final OD600 nm of 0.01.
as §2

[3] = system: Methicillin Resistant Staphylococcus aureus strain USA 300, NRS384 (S. aureus); assay: as above; format: cell-based
Description: as §1, §2

[4] = molecular target: T1, SpsB (Staphylococcus aureus signal peptidase) (Staphylococcus aureus, UniProt P0A070); assay: Whole-cell SpsB biochemical screening assay (kinetic fluorogenic enzyme activity)
T1 construct: a suspension of Staphylococcus aureus cells as a source of SpsB instead of recombinant SpsB protein; endogenous in cells; host or cells: S. aureus, USA300 background, overexpressing SpsB (whole-cell suspension)
T1 sequence (P0A070 whole entry): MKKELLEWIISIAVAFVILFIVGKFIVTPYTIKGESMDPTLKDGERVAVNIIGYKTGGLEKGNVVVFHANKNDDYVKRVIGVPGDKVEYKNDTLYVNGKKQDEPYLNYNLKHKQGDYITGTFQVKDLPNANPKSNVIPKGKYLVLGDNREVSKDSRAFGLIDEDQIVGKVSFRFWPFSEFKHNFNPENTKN
Description: A kinetic fluorogenic enzyme activity assay was used to assess inhibition of SpsB (Staphylococcus aureus signal peptidase) activity and IC50s were determined. This assay uses a suspension of Staphylococcus aureus cells as a source of SpsB instead of recombinant SpsB protein.
Cell preparation: Luria broth (LB) was inoculated with S. aureus (USA300 background, overexpressing SpsB) and shaken at 37° C. until an OD600 nm of 1.5-2.0 was reached (˜4 hr). The culture was then diluted to an OD600 nm of 1.0 with LB, aliquoted and centrifuged at 10,000×g for 2 mins. The supernatant was removed and the pellet was resuspended in phosphate buffer (1×PBS, 12.5 mg/L MgCl2, 25 mg/L CaCl2, 0.1% Tween-80) to an OD600 nm of 0.5, then centrifuged again at 10,000×g for 2 mins. The supernatant was removed and the pellets were frozen at −20° C.
Test compounds were prepared in DMSO at a concentration of 10 mg/mL. These compound stocks were diluted into DMSO to a concentration of 25 μg/mL and serial 3-fold dilutions were made in DMSO, for a total of 11 compound concentrations. 20 nL of each compound solution was pre-spotted into a white 384-well plate (50 μL/well polypropylene, Nunc) using acoustic fluid transfer (Echo).
Frozen S. aureus pellets were resuspended in assay buffer (1×PBS, 12.5 mg/L MgCl2, 25 mg/L CaCl2, 0.1% Tween-80) to an OD600 nm of 0.05, then mixed 1:1 (v/v) with 20 μM substrate ((Dabcyl)βAla-KPAKAAE(Edans)) in assay buffer, and this solution was added (20 μL/well) to the 384-well plate that had been pre-spotted with compound. Fluorescence intensity was then immediately read kinetically for 30 minutes with 2 minute read intervals to monitor cleavage of the internally quenched peptide substrate (excitation wavelength=340 nm, emission wavelength=490 nm, Molecular Devices Spectramax M5). Reaction rate (slope) was plotted against inhibitor concentration to derive the IC50.

[5] = ATCC25922, E. coli ATCC 25922, 35° C., 22 hours
[6] = MRSA / NRS 384 / USA300, MRSA USA 300, NRS384, 35° C., 22 hours, cation adjusted Mueller Hinton Broth with 0.002% Tween-80, read-out: MIC (μg/mL) S. aureus
[7] = MRSA / NRS 384 / USA300, 22 h, read-out: MIC (μg/mL) S. aureus

Row | SMILES | MIC [1] [µg/mL] | MIC [2, 5] [µg/mL] | MIC [3, 6] [µg/mL] | MIC ([2]; ATCC25922, 22 h) [µg/mL] | MIC [3, 7] [µg/mL] | IC50 [4] [nM]
1 | CCCCCCCc1ccc(C(=O)N[C@@H](CCN)C(=O)N(C)[C@@H]2C(=O)N[C@@H](C)C(=O)N[C@H](C(=O)NC/C=N/N3CC(=O)NC3=O)Cc3ccc(OCCN)c(c3)-c3cc2ccc3OCCN)c(C)c1 [Compound 101] | 0.031 (≈ 0.0325 µM) | 4 (≈ 4.19 µM) | 0.094 (≈ 0.0985 µM) | – | – | –
2 | CCCCCCCc1ccc(C(=O)N[C@@H](CCN)C(=O)N(C)[C@@H]2C(=O)N[C@@H](C)C(=O)N[C@H](C(=O)N[C@@H](C)/C=N/N3CC(=O)NC3=O)Cc3ccc(OCCN)c(c3)-c3cc2ccc3OCCN)c(C)c1 [Compound 102] | 0.094 (≈ 0.0971 µM) | 8 (≈ 8.26 µM) | 0.13 (≈ 0.134 µM) | – | – | –
3 | CCCCCCCc1ccc(C(=O)N[C@@H](CCN)C(=O)N(C)[C@@H]2C(=O)N[C@@H](C)C(=O)N[C@H](C(=O)O)Cc3ccc(OCCN)c(c3)-c3cc2ccc3OCCN)c(C)c1 [Compound 103] | 0.0078 (≈ 0.00956 µM) | – | – | 0.75 (≈ 0.919 µM) | 0.17 (≈ 0.208 µM) | –
4 | CCCCCCCc1ccc(C(=O)N[C@@H](CCN)C(=O)N(C)[C@@H]2C(=O)N[C@@H](C)C(=O)N[C@H](C(=O)NS(=O)(=O)CCl)Cc3ccc(OCCN)c(c3)-c3cc2ccc3OCCN)c(C)c1 [Compound 104] | 0.023 (≈ 0.0248 µM) | 4 (≈ 4.31 µM) | 0.75 (≈ 0.809 µM) | – | – | –
5 | CCCCCCCc1ccc(C(=O)N[C@@H](CCN)C(=O)N(C)[C@@H]2C(=O)N[C@@H](C)C(=O)N[C@H](C(=O)N[C@@H](C)C(=O)NOC(C)=O)Cc3ccc(OCCN)c(c3)-c3cc2ccc3OCCN)c(C)c1 [Compound 108] | 0.5 (≈ 0.53 µM) | – | – | 32 (≈ 33.9 µM) | 0.75 (≈ 0.794 µM) | –
6 | CCCCCCCc1ccc(C(=O)N[C@@H](CCN)C(=O)N(C)[C@@H]2C(=O)N[C@@H](C)C(=O)N[C@H](C(=O)NS(=O)(=O)O)Cc3ccc(OCCN)c(c3)-c3cc2ccc3OCCN)c(C)c1 [Compound 111] | 0.063 (≈ 0.0704 µM) | – | – | 8 (≈ 8.94 µM) | 0.25 (≈ 0.279 µM) | –
7 | CCCCCCCCc1ccc(C(=O)N[C@@H](CCN)C(=O)N(C)[C@@H]2C(=O)N[C@@H](C)C(=O)N[C@H](C(=O)NOC)Cc3ccc(OCCN)c(c3)-c3cc2ccc3OCCN)c(C)c1 [Compound 113] | 0.047 (≈ 0.0547 µM) | – | – | 4 (≈ 4.66 µM) | 0.063 (≈ 0.0733 µM) | 1.2
8 | CCCCCCCCc1ccc(C(=O)N[C@@H](CCN)C(=O)N(C)[C@@H]2C(=O)N[C@@H](C)C(=O)N[C@H](C(=O)NCC(=O)NCC#N)Cc3ccc(OCCN)c(c3)-c3cc2ccc3OCCN)c(C)c1 [Compound 114] | 0.13 (≈ 0.141 µM) | – | – | 8 (≈ 8.65 µM) | 0.5 (≈ 0.54 µM) | –
9 | CCCCCCOc1ccc(C(=O)N[C@@H](CCN)C(=O)N(C)[C@@H]2C(=O)N[C@@H](C)C(=O)N[C@H](C(=O)N[C@@H](C)C(=O)c3nnn[nH]3)Cc3ccc(OCCN)c(c3)-c3cc2ccc3OCCN)c(Cl)c1 [Compound 116] | 0.063 (≈ 0.0655 µM) | – | – | 4 (≈ 4.16 µM) | 0.063 (≈ 0.0655 µM) | –
10 | CCCCc1ccc(-c2ccc(C(=O)N[C@@H](CCCCN)C(=O)N(C)[C@@H]3C(=O)N[C@@H](C)C(=O)N[C@H](C(=O)NCCC#N)Cc4ccc(OCCN)c(c4)-c4cc3ccc4OCCN)cc2)cc1 [Compound 119] | 1 (≈ 1.09 µM) | 24 (≈ 26.2 µM) | – | – | – | 71
11 | CCCCCCCCCCCCCC(=O)N[C@@H](CCCCN)C(=O)N(C)[C@@H]1C(=O)N[C@@H](C)C(=O)N[C@H](C(=O)NCCC#N)Cc2ccc(OCCN)c(c2)-c2cc1ccc2OCCN [Compound 120] | 0.5 (≈ 0.562 µM) | 16 (≈ 18 µM) | 2 (≈ 2.25 µM) | – | – | 18
